Reference: patent publication US12508271B2, “Prodrugs of 2-PMPA for healthy tissue protection during PSMA-targeted cancer imaging or radiotherapy” (The Johns Hopkins University, priority 2017, dated 2025)
Each block holds one molecule with its values, some of them ahead of it.

What was measured:
[1] = cited from earlier work
PSMA [2] = molecular target: T1, PSMA (Homo sapiens, UniProt Q04609); conditions: 2-PMPA 0.01 mg co-injection with 177Lu-PSMA I&T (100 MBq); cited from earlier work
PSMA [3] = molecular target: T2, PSMA (Mus musculus, UniProt O35409); conditions: 2-PMPA 0.01 mg co-injection with 177Lu-PSMA I&T (100 MBq); cited from earlier work
T2 sequence (O35409 whole entry): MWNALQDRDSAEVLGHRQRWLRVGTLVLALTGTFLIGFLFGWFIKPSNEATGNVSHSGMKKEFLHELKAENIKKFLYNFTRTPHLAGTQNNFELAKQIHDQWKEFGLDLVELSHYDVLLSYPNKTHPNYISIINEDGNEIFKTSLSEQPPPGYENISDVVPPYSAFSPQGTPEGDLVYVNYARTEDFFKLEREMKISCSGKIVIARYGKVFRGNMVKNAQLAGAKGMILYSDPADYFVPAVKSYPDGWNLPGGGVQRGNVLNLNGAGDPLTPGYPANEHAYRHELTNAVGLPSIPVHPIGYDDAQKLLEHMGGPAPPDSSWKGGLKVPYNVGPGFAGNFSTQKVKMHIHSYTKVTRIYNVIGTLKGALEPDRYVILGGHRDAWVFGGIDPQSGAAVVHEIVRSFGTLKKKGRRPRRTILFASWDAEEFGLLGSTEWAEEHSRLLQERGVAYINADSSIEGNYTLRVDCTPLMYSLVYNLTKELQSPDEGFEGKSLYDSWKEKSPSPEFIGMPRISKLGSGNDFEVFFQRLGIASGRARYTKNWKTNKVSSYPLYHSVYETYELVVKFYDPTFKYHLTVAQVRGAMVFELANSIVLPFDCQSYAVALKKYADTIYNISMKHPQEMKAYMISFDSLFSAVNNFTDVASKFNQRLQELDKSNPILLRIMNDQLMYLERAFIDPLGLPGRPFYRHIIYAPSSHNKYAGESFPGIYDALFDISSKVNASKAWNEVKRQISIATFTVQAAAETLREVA

[4] = Pharmacokinetics/tissue distribution of 2-PMPA in C4-2 prostate cancer tumor-bearing NSG mice; type: in vivo; conditions: 2-PMPA administered directly, 3 mg/kg i.v.
Description: To generate a C4-2 in vivo model, 3×10^6 LNCaP-C4-2 cells were subcutaneously injected into the flanks of male NSG mice. When tumors grew to approximately 600-800 mm^3, tumors were excised, aseptically cut into 2-mm×2-mm pieces and frozen back viably (5% DMSO/95% FBS). Tumors were not passaged from mouse to mouse more than 4 times. For the current experiment, two vials of viably frozen explants were thawed at 37° C. Tumor explants were washed in RPMI without FCS and then surgically implanted in a subcutaneous pocket in male NSG mice. When tumors reached 600-800 mm^3, mice were euthanized, tumors excised aseptically, and cut into 2-mm×2-mm pieces prior to re-implantation into 40 mice. When tumors reached 500-700 mm^3, the pharmacokinetic experiment was performed. 2-PMPA (3 mg/kg, i.v.) or a molar equivalent of Tris-POC-2-PMPA (7.62 mg/kg, i.v.) were injected via tail vein after dissolution in vehicle (5% EtOH/10% Tween 80/85% 50 mM HEPES). Mice were then euthanized under isoflurane anesthesia 0.25, 0.5, 1, 3, or 6 hours later (n=3/group). Blood was collected by cardiac puncture into EDTA-lined tubes and stored on ice until plasma was isolated by centrifugation. Salivary glands, kidneys, and tumor were harvested and flash frozen on dry ice. All tissues were stored at −80° C. prior to bioanalysis.

[5] = Comparative tissue distribution of 2-PMPA prodrugs versus equimolar 2-PMPA in nude mice (kidney 2-PMPA by LC/MS-MS); type: in vivo; conditions: 5 mg/kg or molar equivalent, i.p., 30 minutes
Description: Nude mice were administered either 2-PMPA or the prodrugs LTP-144 or Tris-POC-2-PMPA (compound 10 of Table 1) (5 mg/kg or molar equivalent, i.p.) prior to brief isoflurane anesthesia, saline perfusion, and sacrificed 30 minutes later. Kidneys were removed and flash frozen in liquid nitrogen. Each tissue sample was assessed for 2-PMPA concentration using previously described LC/MS-MS based bioanalysis (Majer et al., 2016). In addition, a prodrug of the urea-based PSMA ligand ZJ-43 (with similar pro-moiety modifications to Tris-POC-2-PMPA) was tested using similar methods.

PSMA [6] = molecular target: T1, PSMA; assay: 177Lu-PSMA-617 radiation dosimetry in mCRPC patients with Tris-POC-2-PMPA pre-treatment versus historical controls; type: in vivo; set-up: from tissue; host or cells: kidneys, salivary and lacrimal glands, and tumour lesions/metastases of living human subjects (PET / gamma imaging); conditions: for 177Lu-PSMA-617 absorbed dose, kidneys / 177Lu-PSMA-617 absorbed dose, parotid gland / 177Lu-PSMA-617 absorbed dose, submandibular gland / 177Lu-PSMA-617 mean dose to metastases: 15 minutes prior to infusion
Description: ^177Lu-PSMA-617 was offered as surrogate therapy in accordance with the updated Declaration of Helsinki, paragraph-37 “Unproven Interventions in Clinical Practice,” and in accordance with German regulations for “compassionate use,” which includes priority of all approved treatments (without contraindications) and confirmation of the indication by both a nuclear medicine physician and an external expert in urology or oncology. No systematic patient selection was performed, except all patients had to present with a PSMA-positive tumor phenotype based on PSMA imaging. All patients were informed about the experimental nature of this therapy and gave written informed consent. The institutional review board approved this retrospective study. Two patients were pre-treated with Tris-POC-2-PMPA prior to administration of ^177Lu-PSMA-617. […] Dosimetry data from historical controls presented herein are derived from patients treated under the same protocol at our center as previously reported (J Nucl Med. 2016 August; 57(8):1170-6.). All dosimetry methods were conducted as previously described in that report (J Nucl Med. 2016 August; 57(8):1170-6.).

PSMA [7] = molecular target: T1, PSMA; assay: Kidney and salivary gland uptake of 68Ga-PSMA-617 in healthy human subject with and without Tris-POC-2-PMPA pre-dosing (PET); type: in vivo; set-up: from tissue; host or cells: kidneys, salivary and lacrimal glands, and tumour lesions/metastases of living human subjects (PET / gamma imaging)
Description: From a couple of patients who had been imaged (Siemens, mCT) 0.1 h, 1 h, 2 h, 3 h and 4 h after injection of ^68Ga-PSMA-617 previously (Afshar-Oromieh et al., 2015), one subject without relevant tumor-load (<5 mL) was chosen to quantify the physiologic spontaneous tracer uptake in kidneys and salivary gland during the examination time. For the intervention experiment, one healthy volunteer was injected with […] (0.05 mg/kgBW) Tris-POC-2-PMPA solution (in 2.5 mL of 30% ethanol) 15 min before application of the PET-tracer. Again, PET-scans (Siemens, mCT) were performed 0.1 h, 1 h, 2 h, 3 h and 4 h after injection of ^68Ga-PSMA-617 and quantified per SUVmax for tracer uptake in kidneys and salivary glands over time.

renal PSMA = molecular target: T3, renal PSMA (Mus musculus, UniProt O35409); assay: Displacement study of 68Ga-PSMA-617 in non-tumor-bearing NMRI mice (PET); type: in vivo; conditions: 0.5 mg/kg i.v. 1 h after tracer, scan 2 h after tracer
T3 construct: from tissue; host or cells: kidney of living NMRI mice (PET)
T3 sequence (O35409 whole entry): as above
Description: ^68Ga-PSMA-617 was synthesized as described previously (Afshar-Oromieh et al., 2015). The specific activity of the radiopharmaceutical used in the presented animal study (20 MBq of ^68Ga tagged to 0.2-0.8 μg of precursor peptide) corresponds to the one used in clinical application (Afshar-Oromieh et al., 2015). Three non-tumor-bearing NMRI mice were injected via the tail vein with 20 MBq of ^68Ga-PSMA-617. 1 h post injection, enough time for specific tracer binding to renal PSMA and clearance of unbound tracer from the kidney calices, mice were imaged in a dedicated small animal PET-scanner (Siemens, Inveon) to quantify kidney uptake (baseline-scan). Immediately after the baseline scan 16 μg Tris-POC-2-PMPA (0.5 mg/kg*32.1 g bodyweight (BW) of all mice) in 100 μL saline was injected via the tail vein. Another 1 h later, i.e., 2 h after injection of the PET-tracer, ^68Ga-PSMA-617 kidney uptake was re-evaluated per animal PET (displacement-scan).

PSMA [8] = molecular target: T2, PSMA; assay: Displacement study of 68Ga-PSMA-617 in LNCaP tumor xenograft bearing nude mice (PET); type: in vivo; set-up: from tissue; host or cells: kidney of nude mice bearing LNCaP xenografts (PET)
Description: (§1) 5*10^6 LNCaP cells (BD Biosciences) were implanted behind the left shoulder of n=3 nude mice; tumors reached a diameter of approximately 1-cm diameter 8-12 weeks after inoculation. Baseline uptake of the radiopharmaceutical in kidneys and tumor was quantified per animal PET-scan (Siemens, Inveon) 1 h after injection of ^68Ga-PSMA-617 (10-40 MBq ^68Ga tagged to […] PSMA-617 precursor). Immediately after the baseline scan animals were injected with 0.5 mg/kgBW or 0.05 mg/kgBW Tris-POC-2-PMPA in […] saline or pure saline as control. Another 1 h later, i.e., 2 h after injection of the PET-tracer, ^68Ga-PSMA-617 uptake in kidneys and tumor were re-evaluated per second animal PET (displacement scan).

PSMA [9] = assay: as above; type: in vivo; conditions: average of two animals, 0.5 or 0.05 mg/kgBW after baseline scan; baseline mSUV 1.02; saline control mSUV 0.84
Description: as §1

PSMA [10] = molecular target: T1, PSMA; assay: Tumor, kidney and salivary gland uptake of 68Ga-PSMA-617 in a prostate cancer patient with and without Tris-POC-2-PMPA pre-dosing (PET); type: in vivo; set-up: from tissue; host or cells: kidneys, salivary and lacrimal glands, and tumour lesions/metastases of living human subjects (PET / gamma imaging)
Description: One patient was PET imaged 1 h after injection of ^68Ga-PSMA-617 and quantified per SUVmax for tracer uptake in tumor, kidneys and salivary glands. On a subsequent day, the same patient was imaged using the same protocol but with pretreatment of 10 mg (0.1 mg/kgBW) Tris-POC-2-PMPA solution (in 2.5 mL of 30% ethanol) 15 min before application of the PET-tracer.

[11] = 10 mg, i.v., 15 minutes prior to tracer, PET 1 h p.i., same patient

T1 sequence (Q04609 whole entry): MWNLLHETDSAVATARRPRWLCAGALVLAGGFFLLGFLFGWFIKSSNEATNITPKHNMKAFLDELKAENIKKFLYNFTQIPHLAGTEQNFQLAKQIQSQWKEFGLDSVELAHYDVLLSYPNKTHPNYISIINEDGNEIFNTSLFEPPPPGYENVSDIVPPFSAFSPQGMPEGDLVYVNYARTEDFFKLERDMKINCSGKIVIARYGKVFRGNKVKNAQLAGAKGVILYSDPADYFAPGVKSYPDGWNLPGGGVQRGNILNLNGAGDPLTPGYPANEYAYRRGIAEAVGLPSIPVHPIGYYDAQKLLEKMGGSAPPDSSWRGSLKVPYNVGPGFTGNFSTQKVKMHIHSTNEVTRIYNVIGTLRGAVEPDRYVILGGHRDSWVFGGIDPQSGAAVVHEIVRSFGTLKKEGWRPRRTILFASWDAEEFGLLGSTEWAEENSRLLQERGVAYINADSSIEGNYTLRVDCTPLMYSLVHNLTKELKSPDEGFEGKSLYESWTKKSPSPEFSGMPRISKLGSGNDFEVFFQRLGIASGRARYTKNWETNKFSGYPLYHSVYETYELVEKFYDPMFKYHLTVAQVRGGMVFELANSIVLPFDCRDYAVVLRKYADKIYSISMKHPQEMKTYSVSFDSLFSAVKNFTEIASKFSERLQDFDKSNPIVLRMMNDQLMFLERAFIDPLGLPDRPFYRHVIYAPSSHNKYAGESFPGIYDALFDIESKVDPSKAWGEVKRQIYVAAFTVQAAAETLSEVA

SMILES: O=C(O)CCC(CP(=O)(O)O)C(=O)O (stereo not shown) [Compound 2-PMPA, 2-(phosphonomethyl)pentanedioic acid]
salivary gland penetration ([1]; 2-PMPA administered as parent): little to no
oral availability ([1]; in vivo, po): negligible
inhibition of tumor uptake of the radiotherapeutic (PSMA [2]): more than 50%
nephrotoxicity 3 months later (PSMA [3]): attenuated nephrotoxicity
reduction of absorbed dose to the kidneys (PSMA [3]): 83%
2-PMPA kidney exposure, fold lower than achieved with TRIS-POC-2-PMPA delivery [4]: 4 fold
2-PMPA salivary gland exposure, fold lower than achieved with TRIS-POC-2-PMPA delivery [4]: 10 fold

concentrations of 2-PMPA in the kidney compared to an equimolar dose of 2-PMPA [5]: significantly increased
177Lu-PSMA-617 absorbed dose, kidneys (PSMA [6]; patient 1, 10 mg, i.v.): 0.38 Gy/GBq
177Lu-PSMA-617 absorbed dose, parotid gland (PSMA [6]; patient 1, 10 mg, i.v.): 0.24 Gy/GBq
177Lu-PSMA-617 absorbed dose, submandibular gland (PSMA [6]; patient 1, 10 mg, i.v.): 0.5 Gy/GBq
177Lu-PSMA-617 mean dose to metastases (PSMA [6]; patient 1, 10 mg, i.v.): 8.03 Gy/GBq
177Lu-PSMA-617 absorbed dose, kidneys (PSMA [6]; patient 2, 10 mg, i.v.): 0.43 Gy/GBq
177Lu-PSMA-617 absorbed dose, parotid gland (PSMA [6]; patient 2, 10 mg, i.v.): 0.46 Gy/GBq
177Lu-PSMA-617 absorbed dose, submandibular gland (PSMA [6]; patient 2, 10 mg, i.v.): 0.44 Gy/GBq
177Lu-PSMA-617 mean dose to metastases (PSMA [6]; patient 2, 10 mg, i.v.): 13.15 Gy/GBq
effect on liver exposure to 177Lu-PSMA-617 (PSMA [6]; pre-treatment): modestly reduce
effect on spleen dose of 177Lu-PSMA-617 (PSMA [6]; pre-treatment): no clear effect
dose reduction to the lacrimal glands relative to mean control values (PSMA [6]; pre-treatment before 177Lu-PSMA-617): about 82%
effect on the 177Lu-PSMA-617 dose to metastases (PSMA [6]; pre-treatment, versus historical controls): little or no effect
dose reduction, salivary glands, relative to historical controls (PSMA [6]; two patients, prior to infusion of 177Lu-PSMA-617): 72%
mean absorbed dose reduction, kidneys, relative to historical controls (PSMA [6]; two patients, 10 mg, i.v.): 45%
mean absorbed dose reduction, parotid gland, relative to historical controls (PSMA [6]; two patients, 10 mg, i.v.): 76%
mean absorbed dose reduction, submandibular gland, relative to historical controls (PSMA [6]; two patients, 10 mg, i.v.): 67%
mean absorbed dose reduction, kidneys, relative to historical controls (PSMA [6]; two patients, 10 mg, i.v., listed as TRIS-POC-2-PMPA): 48%
decrease of maximum 68Ga-PSMA-617 uptake in kidney parenchyma versus representative control (PSMA [7]; 5 mg (0.05 mg/kgBW) 15 min before tracer, healthy volunteer): 65%
maximum 68Ga-PSMA-617 uptake in parotid glands (PSMA [7]; 5 mg (0.05 mg/kgBW) 15 min before tracer, control without pre-dosing 41.2): 13.5 SUVmax
maximum 68Ga-PSMA-617 uptake in kidney parenchyma (PSMA [7]; 5 mg (0.05 mg/kgBW) 15 min before tracer, control without pre-dosing 47.5): 16.5 SUVmax
displacement of 68Ga-PSMA-617 binding to kidney and salivary glands (PSMA [7]; pre-administration, healthy human male): approximately 65%
residual kidney uptake relative to baseline (renal PSMA): < 10 % of baseline-uptake
residual kidney uptake of 68Ga-PSMA-617 in displacement-scan (renal PSMA; baseline-scan 3.4 mSUV): 0.3 mSUV
kidney uptake of 68Ga-PSMA-617 in displacement-scan (PSMA [8]; 0.5 or 0.05 mg/kgBW after baseline scan, baseline mSUV 2.36, saline control mSUV 0.47): 0.24 mSUV
kidney uptake lower than achieved with forced diuresis (saline control) (PSMA [8]; displacement-scan, 2 h after tracer): 50%
mean change of 68Ga-PSMA-617 uptake in metastases (PSMA [10]; 10 mg, i.v., 15 minutes prior to tracer): 3%
68Ga-PSMA-617 uptake in kidneys after pre-treatment (PSMA [10]; [11]): 8.5 SUVmax
68Ga-PSMA-617 uptake in metastases after pre-treatment (PSMA [10]; [11]): 3.9-8.8 SUVmax
68Ga-PSMA-617 uptake in parotid gland after pre-treatment (PSMA [10]; [11]): 10.6 SUVmax
68Ga-PSMA-617 uptake in submandibular gland after pre-treatment (PSMA [10]; [11]): 14.6 SUVmax
effect on tumor uptake of the tracer (PSMA [10]; intraindividual comparison, prostate cancer patient): completely spared tumor uptake
SMILES: CC(C)OC(=O)OCOC(=O)C(CCC(=O)O)CP(=O)(OCOC(=O)OC(C)C)OCOC(=O)OC(C)C (stereo not shown) [Tris-POC-2-PMPA]
tumor uptake of 68Ga-PSMA-617 in displacement-scan (PSMA [9]): 1.00 mSUV
